The text below walks through data of patent US11008340B2, “Modulators of ROR-gamma” (Vitae Pharmaceuticals, LLC, priority 2015, dated 2021).

The structures appear in SMILES notation. Like-named read-outs stand apart in the source and are kept apart here.

For test [1], the target named is T1, recombinant RORγ Ligand Binding Domain (LBD) protein (Homo sapiens, UniProt P51449).
T1 construct: 6×His; GST
T1 sequence (P51449 269-508 limits assumed): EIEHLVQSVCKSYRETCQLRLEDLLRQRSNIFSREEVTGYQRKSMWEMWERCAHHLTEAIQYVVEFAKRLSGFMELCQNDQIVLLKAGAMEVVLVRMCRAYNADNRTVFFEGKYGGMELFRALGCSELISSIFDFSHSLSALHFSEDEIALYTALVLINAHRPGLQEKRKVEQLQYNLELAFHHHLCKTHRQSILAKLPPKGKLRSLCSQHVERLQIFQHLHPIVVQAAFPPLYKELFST
As to the kind of experiment: Radio-Ligand RORγ Binding Assay (Assay 1). Conditions: radio-ligand competition, RORγ LBD, read-out: Avg ROR Bind Ki. The method, boiled down:
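Cell-free SPA competition between compound and 25-hydroxy[26,27-^3H]-cholesterol for 6×His-GST-tagged RORγ LBD in 50 mM HEPES pH 7.4 with NaCl, MgCl2, glycerol, CHAPS, octylglucoside and DTT. Mix was shaken 20 min, held 10 min at rt, then read after poly-Lys YSi beads. IC50 came from a four-parameter fit, and Ki from radioligand KD.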

The target in test [2] is T2, full-length RORγt in Jurkat cells (Homo sapiens, UniProt P51449).
T2 construct: transcriptional activity of the full-length RORγt in Jurkat cells; host or cells: Jurkat cells (ATCC TIB-152)
T2 sequence (P51449 1-497 isoform P51449-2): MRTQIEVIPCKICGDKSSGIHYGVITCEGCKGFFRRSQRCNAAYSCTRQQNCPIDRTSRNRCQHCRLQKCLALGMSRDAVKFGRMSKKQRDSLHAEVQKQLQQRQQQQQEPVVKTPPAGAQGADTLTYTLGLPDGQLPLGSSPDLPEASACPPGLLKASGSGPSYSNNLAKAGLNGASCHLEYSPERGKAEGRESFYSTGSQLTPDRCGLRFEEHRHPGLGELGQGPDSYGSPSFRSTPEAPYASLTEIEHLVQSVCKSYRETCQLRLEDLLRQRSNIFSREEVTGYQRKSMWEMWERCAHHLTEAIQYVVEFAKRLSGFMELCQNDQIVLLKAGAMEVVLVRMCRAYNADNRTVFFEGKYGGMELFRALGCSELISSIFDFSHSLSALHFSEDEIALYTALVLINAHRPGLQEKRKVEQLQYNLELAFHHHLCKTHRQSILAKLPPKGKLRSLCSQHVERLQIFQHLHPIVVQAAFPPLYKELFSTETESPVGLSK
The test is described as follows: RORγt 5×RORE Assay in Jurkat Cells (Assay 2). The class given is cell-based. Conditions: 5×RORE luciferase reporter. The procedure: [formula] RORγt 5×RORE Assay in Jurkat Cells (Assay 2)
Compounds described herein were tested for RORγ inverse agonist activity in a cell-based, transcriptional activity assay. Secreted Nanoluc″ luciferase was used as a reporter for transcriptional activity of the full-length RORγt in Jurkat cells (ATCC, Cat. #TIB-152). A reporter plasmid was constructed by inserting 5 repeats of the ROR Response Element (RORE) […] (SEQ ID NO: 1) into a commercially available promoterless plasmid pNL1.3[secNluc] (Promega, Cat. #N1021) using KpnI and HindIII restriction sites. The expression plasmid for RORγt was purchased (Geneocopoeia, Cat. #EX-T6988-M02). Jurkat cells (30 million cells) were transfected with 11 μg of EX-T6988-MO2 and 26 μg of the reporter plasmid in OptiMEM® media using Lipofectamine LTX and Plus™ reagents (Life Technologies, Cat. #15338-100). After 5-6 hrs of incubation at 37° C./5% CO2, the cells were collected, resuspended in phenol-red free RPMI media containing 10% (v/v) delipidated FBS (Hyclone, Cat. #SH30855.03) and dispensed into 96-well clear bottom tissue culture plates (CoStar, Cat. #3603), at 80,000 cells per well. Tested compounds were added to the cells in the same media (final concentration of DMSO was 0.1% (v/v)), and the plates were incubated at 37° C./5% CO2 for 16-18 hrs. Luciferase activity in the conditioned supernatants was determined with NanoGlo® assay reagents (Promega, Cat. #N1130).

Setting [3] is: 25-hydroxy [26,27-3H]-cholesterol.
[4] abbreviates: head without unit (Tables 15, 17).
The mark [5] stands for this setting: head without unit (Tables 15, 17), read-out: Avg ROR γt/5x IC50.
The mark [6] stands for this setting: Table 20, read-out: Avg ROR γt/5x IC5.

As a reminder, the Ki is the equilibrium dissociation constant of an inhibitor or competing ligand from its target. `CCS(=O)(=O)c1ccc(CNC(=O)c2ccc3c(c2)C(C)(C)CN(Cc2ccc(C#N)cc2)C3C(C)C)cc1` (single isomer, unassigned) [Hy2A-23.2]: the Ki in test [1] (setting [3]) was under 100 nM. In test [2] (read-out: Avg ROR γt/5x IC50), the IC50 lay in the range of 100 to 1000 nM.
The like results for `CCS(=O)(=O)c1ccc(CNC(=O)c2ccc3c(c2)CCN(Cc2ccc(OC(F)F)nc2)[C@H]3C(C)C)cc1` (single isomer, unassigned) [Hy2A-25.1] were, in that order, under 100 nM and under 100 nM.
For the molecule `CCS(=O)(=O)c1ccc(CNC(=O)c2ccc3c(c2)CCN(Cc2ncc(Br)cn2)[C@H]3C(C)C)cc1` (single isomer, unassigned) [Hy2A-26.1], in test [1] (setting [3]), the Ki is under 100 nM. Further, in test [2] (read-out: Avg ROR γt/5x IC50), the IC50 fell in the range of 100 to 1000 nM.
As for `CCC1c2ccc(C(=O)NCc3ccc(S(=O)(=O)CC)cc3)cc2CCN1CC1CCC(C(F)(F)F)CC1` (single isomer, unassigned) [Hy2A-27], the inhibition constant (Ki) in test [1] (setting [3]) was under 100 nM. Besides, the IC50 in test [2] (read-out: Avg ROR γt/5x IC50) was under 100 nM.
Turning to `CCC1c2ccc(C(=O)NC(CO)c3ccc(S(=O)(=O)CC)cc3)cc2CCN1CC1CCC(C(F)(F)F)CC1` (single isomer, unassigned) [Hy2A-28.1], the Ki in test [1] (setting [3]) was under 100 nM. For the same molecule, in test [2] (read-out: Avg ROR γt/5x IC50), the IC50 was under 100 nM.
On to `CCC1c2ccc(C(=O)NC(CO)c3ccc(S(=O)(=O)CC)cc3)cc2CCN1CC1CCC(C(F)(F)F)CC1` (single isomer, unassigned) [Hy2A-28.2], for which the Ki in test [1] (setting [3]) is under 100 nM. The IC50 in test [2] (read-out: Avg ROR γt/5x IC50) was in the range of 100 to 1000 nM.
For the molecule `CCS(=O)(=O)c1ccc(CNC(=O)c2cnc3c(c2)CCN(Cc2ccc(F)cc2)C3C(C)C)cc1` (single isomer, unassigned) [Hy2B-6.1], in test [1] (setting [4]), the Ki is under 100 nM. In addition, the IC50 in test [2] (setting [5]) is over 1000 nM.
As for `CCS(=O)(=O)c1ccc(CNC(=O)c2cnc3c(c2)CCN(Cc2ccc(C#N)cc2)C3C(C)C)cc1` (single isomer, unassigned) [Hy2B-7.1], the Ki in test [1] (setting [4]) was under 100 nM. Further, in test [2] (setting [5]), the IC50 was in the range of 100 to 1000 nM.
With `CCS(=O)(=O)c1ccc(CNC(=O)c2cnc3c(c2)CCN(Cc2ccc(Cl)cc2)C3C(C)C)cc1` (single isomer, unassigned) [Hy2B-8.1], the Ki in test [1] (setting [4]) is under 100 nM. Moreover, the IC50 in test [2] (setting [5]) lay within 100 to 1000 nM.
In the case of `CCS(=O)(=O)c1ccc(CNC(=O)c2cnc3c(c2)CCN(C[C@H]2CC[C@H](C(F)(F)F)CC2)[C@H]3C(C)C)cc1` (single isomer, unassigned) [Hy2B-9.1], in test [1] (setting [4]), the Ki was under 100 nM. In test [2] (setting [5]), the IC50 is 100 to 1000 nM.
With `CCS(=O)(=O)c1ccc(CNC(=O)c2cnc3c(c2)CCN(C[C@H]2CC[C@H](C(F)(F)F)CC2)[C@H]3C(C)C)nc1` (single isomer, unassigned) [Hy2B-10.1], the Ki in test [1] (setting [4]) fell in the range of 100 to 1000 nM. In addition, in test [2] (setting [5]), the IC50 fell in the range of 100 to 1000 nM.
For the molecule `CCS(=O)(=O)c1ccc(CNC(=O)c2ccc3c(c2)CN(c2ncc(F)cn2)C[C@H]3C(C)C)cc1` (single isomer, unassigned) [Hy7-1.1], the Ki in test [1] (setting [3]) was under 100 nM. Moreover, the IC50 in test [2] (setting [6]) is over 1000 nM.
For `CCS(=O)(=O)c1ccc(CNC(=O)c2ccc3c(c2)CN(c2ncc(F)cn2)C[C@@H]3C(C)C)cc1` (single isomer, unassigned) [Hy7-1.2], in test [1] (setting [3]), the Ki was under 100 nM. For the same molecule, the IC50 in test [2] (setting [6]) is over 1000 nM.
The like results for `CCS(=O)(=O)c1ccc(CNC(=O)c2ccc3c(c2)CN(c2ncc(C#N)cn2)C[C@H]3C(C)C)cc1` (single isomer, unassigned) [Hy7-2.1] were, in that order, under 100 nM and 100 to 1000 nM.
Regarding `CCS(=O)(=O)c1ccc(CNC(=O)c2ccc3c(c2)CN(c2ncc(Cl)cn2)C[C@H]3C(C)C)cc1` (single isomer, unassigned) [Hy7-3.1], the Ki in test [1] (setting [3]) is under 100 nM. For the same molecule, the IC50 in test [2] (setting [6]) was 100 to 1000 nM.
Regarding `CCS(=O)(=O)c1ccc(CNC(=O)c2ccc3c(c2)CN(c2ncc(Cl)cn2)C[C@@H]3C(C)C)cc1` (single isomer, unassigned) [Hy7-3.2], in test [1] (setting [3]), the Ki is under 100 nM. Moreover, in test [2] (setting [6]), the IC50 is over 1000 nM.
Turning to `CCS(=O)(=O)c1ccc(CNC(=O)c2ccc3c(c2)CN(c2ncc(C4CC4)cn2)C[C@H]3C(C)C)cc1` (single isomer, unassigned) [Hy7-4.1], the Ki in test [1] (setting [3]) is under 100 nM. Further, the IC50 in test [2] (setting [6]) is 100 to 1000 nM.
Take `CCS(=O)(=O)c1ccc(CNC(=O)c2ccc3c(c2)CN(c2ncc(C4CC4)cn2)C[C@@H]3C(C)C)cc1` (single isomer, unassigned) [Hy7-4.2]: the Ki in test [1] (setting [3]) is under 100 nM. Further, in test [2] (setting [6]), the IC50 was over 1000 nM.
For the molecule `CCOc1cnc(N2Cc3cc(C(=O)NCc4ccc(S(=O)(=O)CC)cc4)ccc3[C@H](C(C)C)C2)nc1` (single isomer, unassigned) [Hy7-5.1], in test [1] (setting [3]), the Ki was under 100 nM. Further, the IC50 in test [2] (setting [6]) lay within 100 to 1000 nM.
In the case of `CC[C@@H]1CN(c2ncc(Cl)cn2)Cc2cc(C(=O)N[C@@H](CO)c3ccc(S(=O)(=O)CC)cc3)ccc21` (single isomer, unassigned) [Hy7-6.1], the Ki in test [1] (setting [3]) was under 100 nM. Further, the IC50 in test [2] (setting [6]) was over 1000 nM.
On to `CC[C@H]1CN(c2ncc(Cl)cn2)Cc2cc(C(=O)N[C@@H](CO)c3ccc(S(=O)(=O)CC)cc3)ccc21` (single isomer, unassigned) [Hy7-6.2], for which, in test [1] (setting [3]), the Ki is under 100 nM. In addition, in test [2] (setting [6]), the IC50 was over 1000 nM.
Turning to `CC[C@@H]1CN(c2ccc(C(F)(F)F)cc2)Cc2cc(C(=O)NCc3ccc(S(=O)(=O)CC)cc3)ccc21` (single isomer, unassigned) [Hy7-7.1], the inhibition constant Ki in test [1] (setting [3]) is under 100 nM. Moreover, the IC50 in test [2] (setting [6]) was under 100 nM.
On to `CC[C@H]1CN(c2ccc(C(F)(F)F)cc2)Cc2cc(C(=O)NCc3ccc(S(=O)(=O)CC)cc3)ccc21` (single isomer, unassigned) [Hy7-7.2], for which, in test [1] (setting [3]), the Ki was under 100 nM. Further, in test [2] (setting [6]), the IC50 is 100 to 1000 nM.
Consider `CC[C@@H]1CN(c2ccc(C(F)(F)F)cn2)Cc2cc(C(=O)NCc3ccc(S(=O)(=O)CC)cc3)ccc21` (single isomer, unassigned) [Hy7-8.1], for which the inhibition constant (Ki) in test [1] (setting [3]) was under 100 nM. For the same molecule, in test [2] (setting [6]), the IC50 was under 100 nM.
Turning to `CC[C@H]1CN(c2ccc(C(F)(F)F)cn2)Cc2cc(C(=O)NCc3ccc(S(=O)(=O)CC)cc3)ccc21` (single isomer, unassigned) [Hy7-8.2], the inhibition constant Ki in test [1] (setting [3]) was under 100 nM. Also, in test [2] (setting [6]), the IC50 is 100 to 1000 nM.
The like results for `CC[C@@H]1CN(c2ncc(C(F)(F)F)cn2)Cc2cc(C(=O)NCc3ccc(S(=O)(=O)CC)cc3)ccc21` (single isomer, unassigned) [Hy7-9.1] were, in that order, under 100 nM and under 100 nM.
Regarding `CC[C@H]1CN(c2ncc(C(F)(F)F)cn2)Cc2cc(C(=O)NCc3ccc(S(=O)(=O)CC)cc3)ccc21` (single isomer, unassigned) [Hy7-9.2], the Ki in test [1] (setting [3]) was under 100 nM. The IC50 in test [2] (setting [6]) was over 1000 nM.
`CC[C@H]1CN(c2ncc(C(F)(F)F)cn2)Cc2cc(C(=O)NCc3ccc(S(=O)(=O)CC)cn3)ccc21` (single isomer, unassigned) [Hy7-10.1]: the Ki in test [1] (setting [3]) was under 100 nM. For the same molecule, the IC50 in test [2] (setting [6]) was under 100 nM.
Turning to `CC[C@@H]1CN(c2ncc(C3CC3)cn2)Cc2cc(C(=O)N[C@@H](CO)c3ccc(S(=O)(=O)CC)cc3)ccc21` (single isomer, unassigned) [Hy7-11.1], the Ki in test [1] (setting [3]) is under 100 nM. Besides, in test [2] (setting [6]), the IC50 was 100 to 1000 nM.
The corresponding values for `CC[C@H]1CN(c2ncc(C3CC3)cn2)Cc2cc(C(=O)N[C@@H](CO)c3ccc(S(=O)(=O)CC)cc3)ccc21` (single isomer, unassigned) [Hy7-11.2] are under 100 nM and over 1000 nM.
